Values of other authors as cited in US20140230258A1, “COMPACT HAND HELD DEVICE” (The Gillette Company, priority 2013, published 2014).

Conditions: organism not stated

For `CCCCCCCCn1sc(Cl)c(Cl)c1=O` [4,5-dichloro-2-n-octyl-4-isothiazolin-3-one], the MIC is given as “about 50 ppm”.
